Experimental data taken from ChEMBL document CHEMBL5291721, “A preclinical secondary pharmacology resource illuminates target-adverse drug reaction associations of marketed drugs” (Nat Commun, 2023).

Tests used:
[1] = molecular target: T1, Alpha-1A adrenergic receptor (Homo sapiens, UniProt P35348)
T1 sequence (P35348 whole entry): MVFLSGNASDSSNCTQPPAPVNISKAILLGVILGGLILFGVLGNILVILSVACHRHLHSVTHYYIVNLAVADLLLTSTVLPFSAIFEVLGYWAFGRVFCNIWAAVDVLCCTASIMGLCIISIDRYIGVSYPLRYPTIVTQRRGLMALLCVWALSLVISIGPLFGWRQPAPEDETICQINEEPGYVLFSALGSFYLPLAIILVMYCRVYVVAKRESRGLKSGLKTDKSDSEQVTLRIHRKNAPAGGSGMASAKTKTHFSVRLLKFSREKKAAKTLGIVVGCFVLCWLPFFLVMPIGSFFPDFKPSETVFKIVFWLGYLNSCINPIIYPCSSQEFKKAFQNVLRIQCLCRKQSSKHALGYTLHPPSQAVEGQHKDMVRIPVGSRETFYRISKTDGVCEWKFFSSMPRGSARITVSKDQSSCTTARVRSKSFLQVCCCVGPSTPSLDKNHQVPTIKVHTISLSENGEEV

Vasopressin V1a receptor = Vasopressin V1a receptor (Homo sapiens, UniProt P37288)
B2 bradykinin receptor = molecular target: T2, B2 bradykinin receptor (Homo sapiens, UniProt P30411)
T2 sequence (P30411 whole entry): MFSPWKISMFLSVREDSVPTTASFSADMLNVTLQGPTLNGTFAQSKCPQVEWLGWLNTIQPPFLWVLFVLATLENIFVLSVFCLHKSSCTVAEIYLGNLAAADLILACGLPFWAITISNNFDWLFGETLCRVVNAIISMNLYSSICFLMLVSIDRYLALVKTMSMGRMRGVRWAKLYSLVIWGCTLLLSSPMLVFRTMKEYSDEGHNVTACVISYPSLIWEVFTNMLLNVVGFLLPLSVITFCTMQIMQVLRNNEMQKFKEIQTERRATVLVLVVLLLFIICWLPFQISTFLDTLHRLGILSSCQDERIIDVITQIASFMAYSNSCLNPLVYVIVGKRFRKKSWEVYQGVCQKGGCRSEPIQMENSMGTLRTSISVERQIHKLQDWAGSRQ

[2] = molecular target: Voltage-dependent L-type calcium channel subunit alpha-1C (Rattus norvegicus, UniProt P22002); assay type: functional
Cannabinoid receptor 1 [3] = molecular target: T3, Cannabinoid receptor 1 (Homo sapiens, UniProt P21554); assay type: functional, cell-based
Cannabinoid receptor 1 [4] = molecular target: T3, Cannabinoid receptor 1
Histamine H2 receptor = Histamine H2 receptor (Homo sapiens, UniProt P25021); assay type: functional, cell-based
[5] = molecular target: T4, 5-hydroxytryptamine receptor 1A (Homo sapiens, UniProt P08908); assay type: functional, cell-based
T4 sequence (P08908 whole entry): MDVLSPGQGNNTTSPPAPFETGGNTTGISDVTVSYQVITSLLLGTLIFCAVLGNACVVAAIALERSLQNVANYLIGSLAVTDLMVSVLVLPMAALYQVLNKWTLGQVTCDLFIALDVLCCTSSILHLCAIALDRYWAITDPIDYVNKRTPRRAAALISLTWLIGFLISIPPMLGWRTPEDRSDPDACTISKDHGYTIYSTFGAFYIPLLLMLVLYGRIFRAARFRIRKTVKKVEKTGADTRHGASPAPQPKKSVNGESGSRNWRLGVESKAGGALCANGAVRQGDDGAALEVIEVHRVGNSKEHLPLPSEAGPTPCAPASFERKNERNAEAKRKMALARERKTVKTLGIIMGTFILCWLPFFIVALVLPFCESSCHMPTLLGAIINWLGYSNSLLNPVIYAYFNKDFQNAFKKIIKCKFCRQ

Mu-type opioid receptor = Mu-type opioid receptor (Homo sapiens, UniProt P35372); assay: biochemical; assay type: functional
Progesterone receptor = molecular target: T5, Progesterone receptor (Homo sapiens, UniProt P06401); assay type: functional
T5 sequence (P06401 whole entry): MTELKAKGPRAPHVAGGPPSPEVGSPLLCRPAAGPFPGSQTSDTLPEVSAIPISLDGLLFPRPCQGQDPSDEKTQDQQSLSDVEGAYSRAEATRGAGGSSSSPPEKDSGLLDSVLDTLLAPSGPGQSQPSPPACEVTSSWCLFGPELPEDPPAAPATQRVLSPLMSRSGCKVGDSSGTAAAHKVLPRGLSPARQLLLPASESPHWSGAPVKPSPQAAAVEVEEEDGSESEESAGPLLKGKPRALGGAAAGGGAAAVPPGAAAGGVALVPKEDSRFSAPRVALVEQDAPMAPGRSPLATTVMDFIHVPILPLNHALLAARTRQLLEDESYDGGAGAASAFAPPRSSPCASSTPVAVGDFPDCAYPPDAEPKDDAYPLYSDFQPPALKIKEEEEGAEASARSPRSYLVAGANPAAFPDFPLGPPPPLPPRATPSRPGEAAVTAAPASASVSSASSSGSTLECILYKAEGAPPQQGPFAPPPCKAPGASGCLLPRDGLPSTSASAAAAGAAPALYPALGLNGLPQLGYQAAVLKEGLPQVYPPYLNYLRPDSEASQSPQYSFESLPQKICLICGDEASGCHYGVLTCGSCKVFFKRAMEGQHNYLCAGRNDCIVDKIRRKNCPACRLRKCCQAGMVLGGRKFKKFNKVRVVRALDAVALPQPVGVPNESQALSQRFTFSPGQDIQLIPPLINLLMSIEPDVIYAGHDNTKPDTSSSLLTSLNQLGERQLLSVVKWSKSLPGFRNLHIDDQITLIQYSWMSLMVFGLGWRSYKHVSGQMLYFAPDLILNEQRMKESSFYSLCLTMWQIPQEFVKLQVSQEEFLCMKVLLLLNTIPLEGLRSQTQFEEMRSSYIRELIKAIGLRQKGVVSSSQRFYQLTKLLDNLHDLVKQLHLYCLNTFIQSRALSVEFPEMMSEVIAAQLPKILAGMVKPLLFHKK

Thromboxane A2 receptor = molecular target: T6, Thromboxane A2 receptor (Homo sapiens, UniProt P21731)
T6 sequence (P21731 whole entry): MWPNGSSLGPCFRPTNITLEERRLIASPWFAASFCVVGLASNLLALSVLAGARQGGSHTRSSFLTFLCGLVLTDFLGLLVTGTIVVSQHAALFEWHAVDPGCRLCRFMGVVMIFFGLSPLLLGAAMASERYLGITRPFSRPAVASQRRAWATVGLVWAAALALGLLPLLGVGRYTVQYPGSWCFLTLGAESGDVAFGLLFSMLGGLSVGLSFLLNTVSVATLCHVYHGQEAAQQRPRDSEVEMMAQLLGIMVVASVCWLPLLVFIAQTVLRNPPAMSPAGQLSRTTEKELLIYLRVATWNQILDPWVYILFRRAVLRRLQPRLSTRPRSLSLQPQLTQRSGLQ

[6] = molecular target: 5-hydroxytryptamine receptor 2A (Homo sapiens, UniProt P28223); assay type: functional, cell-based

Measured: AC50
Note: assay procedure not described here.

Chain of Voltage-dependent L-type calcium channel subunit alpha-1C (P22002 whole entry): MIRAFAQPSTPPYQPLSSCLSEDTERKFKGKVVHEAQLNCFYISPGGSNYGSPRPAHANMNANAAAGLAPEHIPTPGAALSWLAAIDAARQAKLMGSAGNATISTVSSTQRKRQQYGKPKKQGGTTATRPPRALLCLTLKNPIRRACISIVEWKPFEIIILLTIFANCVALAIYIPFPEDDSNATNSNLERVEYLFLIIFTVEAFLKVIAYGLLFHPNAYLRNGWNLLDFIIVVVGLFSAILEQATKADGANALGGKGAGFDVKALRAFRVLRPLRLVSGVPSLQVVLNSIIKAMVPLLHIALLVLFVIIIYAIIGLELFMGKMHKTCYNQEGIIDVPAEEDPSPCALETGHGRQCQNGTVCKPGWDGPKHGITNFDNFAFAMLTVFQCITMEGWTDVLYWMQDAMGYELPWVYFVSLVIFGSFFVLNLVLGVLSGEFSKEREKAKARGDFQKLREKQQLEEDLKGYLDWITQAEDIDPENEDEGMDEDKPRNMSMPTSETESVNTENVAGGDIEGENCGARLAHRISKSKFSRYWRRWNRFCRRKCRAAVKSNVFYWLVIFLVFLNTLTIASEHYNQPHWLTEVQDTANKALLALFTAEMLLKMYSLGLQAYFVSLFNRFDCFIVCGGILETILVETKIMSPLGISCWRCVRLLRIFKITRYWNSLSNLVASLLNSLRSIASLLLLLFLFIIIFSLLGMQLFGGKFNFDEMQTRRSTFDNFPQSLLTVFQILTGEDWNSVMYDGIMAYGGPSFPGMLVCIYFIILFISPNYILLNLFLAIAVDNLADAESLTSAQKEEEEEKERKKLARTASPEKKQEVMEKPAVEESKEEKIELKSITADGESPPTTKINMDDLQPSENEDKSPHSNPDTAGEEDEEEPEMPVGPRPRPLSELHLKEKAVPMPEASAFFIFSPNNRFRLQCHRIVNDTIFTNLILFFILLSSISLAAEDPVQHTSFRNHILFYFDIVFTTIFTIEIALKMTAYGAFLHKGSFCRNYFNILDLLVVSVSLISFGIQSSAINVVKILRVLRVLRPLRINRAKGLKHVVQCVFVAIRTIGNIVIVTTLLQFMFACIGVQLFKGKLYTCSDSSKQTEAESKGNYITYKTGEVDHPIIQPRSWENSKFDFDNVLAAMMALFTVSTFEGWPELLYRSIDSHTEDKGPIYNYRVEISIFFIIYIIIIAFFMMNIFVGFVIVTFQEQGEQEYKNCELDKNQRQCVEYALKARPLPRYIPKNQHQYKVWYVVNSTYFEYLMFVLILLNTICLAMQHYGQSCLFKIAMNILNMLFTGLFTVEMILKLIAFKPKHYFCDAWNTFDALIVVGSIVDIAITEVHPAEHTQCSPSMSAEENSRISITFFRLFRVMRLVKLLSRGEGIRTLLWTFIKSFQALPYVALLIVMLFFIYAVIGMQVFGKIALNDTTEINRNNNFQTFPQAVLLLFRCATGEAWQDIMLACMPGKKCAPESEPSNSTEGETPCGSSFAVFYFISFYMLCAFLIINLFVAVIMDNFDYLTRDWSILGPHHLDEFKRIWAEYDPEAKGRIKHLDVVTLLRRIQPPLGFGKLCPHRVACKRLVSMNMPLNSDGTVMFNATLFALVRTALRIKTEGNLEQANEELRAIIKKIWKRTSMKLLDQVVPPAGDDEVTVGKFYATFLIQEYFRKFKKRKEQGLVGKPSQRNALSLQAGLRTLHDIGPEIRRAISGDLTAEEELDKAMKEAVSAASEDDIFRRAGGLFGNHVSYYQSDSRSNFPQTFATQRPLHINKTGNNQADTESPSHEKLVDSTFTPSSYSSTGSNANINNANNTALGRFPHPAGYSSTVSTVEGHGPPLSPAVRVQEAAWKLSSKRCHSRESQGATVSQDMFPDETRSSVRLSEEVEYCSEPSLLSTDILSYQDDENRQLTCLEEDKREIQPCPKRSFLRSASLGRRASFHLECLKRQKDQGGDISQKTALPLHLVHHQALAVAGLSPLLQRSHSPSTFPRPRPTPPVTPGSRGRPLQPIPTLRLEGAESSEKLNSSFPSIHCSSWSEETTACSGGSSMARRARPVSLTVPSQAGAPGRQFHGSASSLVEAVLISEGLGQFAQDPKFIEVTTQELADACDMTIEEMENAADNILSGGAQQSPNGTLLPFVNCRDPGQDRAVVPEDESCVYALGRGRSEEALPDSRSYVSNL
T3 sequence (P21554 whole entry): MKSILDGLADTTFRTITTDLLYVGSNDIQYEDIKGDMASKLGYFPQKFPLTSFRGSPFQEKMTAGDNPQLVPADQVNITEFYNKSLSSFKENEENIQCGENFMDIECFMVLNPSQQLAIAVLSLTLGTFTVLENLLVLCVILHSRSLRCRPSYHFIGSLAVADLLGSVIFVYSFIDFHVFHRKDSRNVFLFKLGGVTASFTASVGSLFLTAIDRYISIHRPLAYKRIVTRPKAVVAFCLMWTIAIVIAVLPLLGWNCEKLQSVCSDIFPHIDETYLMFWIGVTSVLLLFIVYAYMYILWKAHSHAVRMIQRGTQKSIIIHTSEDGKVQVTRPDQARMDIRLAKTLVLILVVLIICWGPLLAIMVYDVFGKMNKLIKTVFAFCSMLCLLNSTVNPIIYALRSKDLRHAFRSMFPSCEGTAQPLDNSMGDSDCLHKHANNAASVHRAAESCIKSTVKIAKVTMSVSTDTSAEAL
Chain of 5-hydroxytryptamine receptor 2A (P28223 whole entry): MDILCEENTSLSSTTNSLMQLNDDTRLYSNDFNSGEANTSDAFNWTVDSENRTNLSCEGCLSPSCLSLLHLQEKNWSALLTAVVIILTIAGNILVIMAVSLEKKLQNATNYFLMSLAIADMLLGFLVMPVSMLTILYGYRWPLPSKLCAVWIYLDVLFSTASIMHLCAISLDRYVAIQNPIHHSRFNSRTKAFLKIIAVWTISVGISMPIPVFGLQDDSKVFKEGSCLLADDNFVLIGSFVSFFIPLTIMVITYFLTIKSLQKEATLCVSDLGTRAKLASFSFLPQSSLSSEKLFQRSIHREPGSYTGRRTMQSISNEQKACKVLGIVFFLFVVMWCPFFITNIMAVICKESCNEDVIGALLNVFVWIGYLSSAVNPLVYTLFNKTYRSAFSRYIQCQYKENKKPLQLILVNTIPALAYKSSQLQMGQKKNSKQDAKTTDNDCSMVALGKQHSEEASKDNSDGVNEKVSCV
Chain of Vasopressin V1a receptor (P37288 whole entry): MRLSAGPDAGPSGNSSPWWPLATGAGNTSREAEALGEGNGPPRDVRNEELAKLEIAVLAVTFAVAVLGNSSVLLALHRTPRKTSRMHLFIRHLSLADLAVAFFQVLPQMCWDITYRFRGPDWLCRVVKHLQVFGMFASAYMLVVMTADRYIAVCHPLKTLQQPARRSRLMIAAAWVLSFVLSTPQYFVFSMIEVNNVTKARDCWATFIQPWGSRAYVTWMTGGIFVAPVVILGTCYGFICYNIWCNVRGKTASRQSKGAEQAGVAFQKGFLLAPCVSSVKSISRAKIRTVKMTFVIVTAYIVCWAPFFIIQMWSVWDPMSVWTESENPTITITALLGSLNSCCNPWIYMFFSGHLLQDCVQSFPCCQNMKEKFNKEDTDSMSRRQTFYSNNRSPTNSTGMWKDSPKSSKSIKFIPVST
Chain of Histamine H2 receptor (P25021 whole entry): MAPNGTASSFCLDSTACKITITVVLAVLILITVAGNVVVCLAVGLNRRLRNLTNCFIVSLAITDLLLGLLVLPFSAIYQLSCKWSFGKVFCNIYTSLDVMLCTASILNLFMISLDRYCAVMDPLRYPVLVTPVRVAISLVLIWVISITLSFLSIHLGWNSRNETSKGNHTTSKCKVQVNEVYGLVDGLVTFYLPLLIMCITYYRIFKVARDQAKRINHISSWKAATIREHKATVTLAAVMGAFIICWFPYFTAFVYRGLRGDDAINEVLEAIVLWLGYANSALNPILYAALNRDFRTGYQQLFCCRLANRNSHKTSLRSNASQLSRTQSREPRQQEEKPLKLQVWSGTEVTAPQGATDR
Chain of Mu-type opioid receptor (P35372 whole entry): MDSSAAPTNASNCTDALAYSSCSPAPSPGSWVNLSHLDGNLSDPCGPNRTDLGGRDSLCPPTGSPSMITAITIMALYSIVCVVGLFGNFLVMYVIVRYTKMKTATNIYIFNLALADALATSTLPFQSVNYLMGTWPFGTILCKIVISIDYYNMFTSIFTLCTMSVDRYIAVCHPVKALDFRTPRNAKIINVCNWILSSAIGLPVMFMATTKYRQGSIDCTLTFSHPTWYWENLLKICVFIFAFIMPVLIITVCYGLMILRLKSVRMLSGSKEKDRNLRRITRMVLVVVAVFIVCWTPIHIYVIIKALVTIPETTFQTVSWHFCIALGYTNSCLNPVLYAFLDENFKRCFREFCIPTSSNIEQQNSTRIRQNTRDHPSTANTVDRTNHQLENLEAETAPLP

C[N+](C)(C)CCOC(N)=O [CARBAMOYLCHOLINE]
5.95 µM: [5]
> 30 µM: Cannabinoid receptor 1 [3] | Histamine H2 receptor | Mu-type opioid receptor
not listed: [6]
> 10 µM: all other assays above

CN(C)[C@@H]1C(O)=C(C(N)=O)C(=O)[C@@]2(O)C(O)=C3C(=O)c4c(O)ccc(Cl)c4[C@@H](O)[C@H]3C[C@@H]12 [DEMECLOCYCLINE]
> 30 µM: Progesterone receptor
not listed: Cannabinoid receptor 1 [3] | Mu-type opioid receptor
> 10 µM: all other assays above

NS(=O)(=O)c1cc(Cl)c(Cl)c(S(N)(=O)=O)c1 [DICHLORPHENAMIDE]
not listed: Cannabinoid receptor 1 [3] | Mu-type opioid receptor
> 10 µM: all other assays above

O=C(Nc1ccccc1)OCC(CN1CCCCC1)OC(=O)Nc1ccccc1 (stereo not given) [DIPERODON]
4.1 µM: Mu-type opioid receptor
> 30 µM: B2 bradykinin receptor | Cannabinoid receptor 1 [3] | [6] | Thromboxane A2 receptor
not listed: [2] | Progesterone receptor
> 10 µM: all other assays above

CC(C)NCC1CCc2cc(CO)c([N+](=O)[O-])cc2N1 (stereo not given) [OXAMNIQUINE]
> 30 µM: Cannabinoid receptor 1 [3] | [5] | [6]
not listed: Mu-type opioid receptor
> 10 µM: all other assays above

CN(C)CCCN1c2ccccc2Sc2ccccc21 [PROMAZINE]
2.9 µM: Mu-type opioid receptor
0.0171 µM: [1]
> 30 µM: B2 bradykinin receptor | Cannabinoid receptor 1 [3] | Thromboxane A2 receptor
not listed: Progesterone receptor | [6]
> 10 µM: all other assays above

O=C(O)CCn1c2c(c3ccccc31)C[C@H](NS(=O)(=O)c1ccc(F)cc1)CC2 [RAMATROBAN]
> 10 µM: [2] | Cannabinoid receptor 1 [4] | [5] | [6]
0.0311 µM: Thromboxane A2 receptor
not listed: Cannabinoid receptor 1 [3]
> 30 µM: all other assays above

O=P(O)(O)C(O)(Cc1cccnc1)P(=O)(O)O [RISEDRONIC ACID]
> 10 µM: [1] | Histamine H2 receptor
not listed: [6]
> 30 µM: all other assays above

CC(=O)N[C@H]1[C@H]([C@H](O)[C@H](O)CO)OC(C(=O)O)=C[C@@H]1N=C(N)N [ZANAMIVIR]
not listed: Cannabinoid receptor 1 [3]
> 30 µM: all other assays above
